Molecular target: T1, human Cereblon WT GST-tagged protein (Homo sapiens, UniProt Q96SW2)
T1 construct: purchased CISBIO 64BDCRBNPEH
Experiment: CRBN binding, HTRF CEREBLON BINDING kit
Conditions: CRBN binding, HTRF CEREBLON BINDING kit
Summary of the method: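 Binding inhibition was calculated from the 665/620 nm emission ratios, with blank wells and solvent wells as references. Test compounds competed for GST-tagged human Cereblon WT against a Thalidomide-Re reagent paired with GST Eu antibody. Plates were sealed and held at room temperature for 3 hours before the HTRF read.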

T1 sequence (Q96SW2 whole entry): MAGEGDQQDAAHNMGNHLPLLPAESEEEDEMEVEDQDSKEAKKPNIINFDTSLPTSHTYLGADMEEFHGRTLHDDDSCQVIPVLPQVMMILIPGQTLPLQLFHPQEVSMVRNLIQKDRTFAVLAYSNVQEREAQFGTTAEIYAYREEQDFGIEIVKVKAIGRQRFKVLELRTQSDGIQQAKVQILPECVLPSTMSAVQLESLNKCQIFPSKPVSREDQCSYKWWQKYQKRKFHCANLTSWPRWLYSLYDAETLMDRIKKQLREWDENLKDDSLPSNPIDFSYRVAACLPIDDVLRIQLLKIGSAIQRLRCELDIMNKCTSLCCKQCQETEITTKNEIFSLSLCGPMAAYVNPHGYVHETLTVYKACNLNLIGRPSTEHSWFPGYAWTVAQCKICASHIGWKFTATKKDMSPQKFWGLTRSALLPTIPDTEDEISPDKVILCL

| IC50 | Compound |
| --- | --- |
| 1000 to 1900 nM | Cc1nc2c(F)cc(-c3nc(Nc4ccc(N5CCC(N(C)Cc6cccc(N7CCC(=O)NC7=O)c6)CC5)cn4)ncc3F)cc2n1C(C)C [GT-06839, 1-(3-(((1-(6-((5-fluoro-4-(4-fluoro-1-isopropyl-2-methyl-1H-benzo[d]imidazol-6-yl)pyrimidin-2-yl)amino)pyridin-3-yl)piperidin-4-yl)(methyl)amino)methyl)phenyl)dihydropyrimidine-2,4(1H,3H)-dione] |
| 500 to 1000 nM | CN(Cc1ccc(N2CCC(=O)NC2=O)cn1)C1CCN(c2ccc(Nc3ncc4nc(Nc5ccccc5)n(C5CCCC5)c4n3)cc2)CC1 [GT-07093, 1-(6-(((1-(4-((9-cyclopentyl-8-(phenylamino)-9H-purin-2-yl)amino)phenyl)piperidin-4-yl)(methyl)amino)methyl)pyridin-3-yl)dihydropyrimidine-2,4(1H,3H)-dione] |
| 1000 to 1900 nM | CN(Cc1cccc(NC2CCC(=O)NC2=O)c1)C1CCN(c2ccc(Nc3ncc4nc(Nc5ccccc5)n(C5CCCC5)c4n3)cc2)CC1 (stereo not shown) [GT-07094, 3-((3-(((1-(4-((9-cyclopentyl-8-(phenylamino)-9H-purin-2-yl)amino)phenyl)piperidin-4-yl)(methyl)amino)methyl)phenyl)amino)piperidine-2,6-dione] |
| 500 to 1000 nM | CCc1cc2c(cc1N1CCC(N3CCN(Cc4ccc(N5CCC(=O)NC5=O)cc4)CC3)CC1)C(C)(C)c1[nH]c3cc(C#N)ccc3c1C2=O [GT-07307, 8-(4-(4-(4-(2,4-dioxotetrahydropyrimidin-1(2H)-yl)benzyl)piperazin-1-yl)piperidin-1-yl)-9-ethyl-6,6-dimethyl-11-oxo-6,11-dihydro-5H-benzo[b]carbazole-3-carbonitrile] |
| 500 to 1000 nM | CCc1cc2c(cc1N1CCC(N3CCN(Cc4ccc(N5CCC(=O)NC5=O)c(F)c4)CC3)CC1)C(C)(C)c1[nH]c3cc(C#N)ccc3c1C2=O [GT-07308, 8-(4-(4-(4-(2,4-dioxotetrahydropyrimidin-1(2H)-yl)-3-fluorobenzyl)piperazin-1-yl)piperidin-1-yl)-9-ethyl-6,6-dimethyl-11-oxo-6,11-dihydro-5H-benzo[b]carbazole-3-carbonitrile] |
| 500 to 1000 nM | CCc1cc2c(cc1N1CCC(N3CCN(Cc4ccc(N5CCC(=O)NC5=O)cc4F)CC3)CC1)C(C)(C)c1[nH]c3cc(C#N)ccc3c1C2=O [GT-07309, 8-(4-(4-(4-(2,4-dioxotetrahydropyrimidin-1(2H)-yl)-2-fluorobenzyl)piperazin-1-yl)piperidin-1-yl)-9-ethyl-6,6-dimethyl-11-oxo-6,11-dihydro-5H-benzo[b]carbazole-3-carbonitrile] |
| 500 to 1000 nM | CCc1cc2c(cc1N1CCC(N3CCN(Cc4cccc(N5CCC(=O)NC5=O)c4)CC3)CC1)C(C)(C)c1[nH]c3cc(C#N)ccc3c1C2=O [GT-07310, 8-(4-(4-(3-(2,4-dioxotetrahydropyrimidin-1(2H)-yl)benzyl)piperazin-1-yl)piperidin-1-yl)-9-ethyl-6,6-dimethyl-11-oxo-6,11-dihydro-5H-benzo[b]carbazole-3-carbonitrile] |
| 500 to 1000 nM | CCc1cc2c(cc1N1CCC(N3CCN(Cc4ccc(N5CCC(=O)NC5=O)cn4)CC3)CC1)C(C)(C)c1[nH]c3cc(C#N)ccc3c1C2=O [GT-07311, 8-(4-(4-((5-(2,4-dioxotetrahydropyrimidin-1(2H)-yl)pyridin-2-yl)methyl)piperazin-1-yl)piperidin-1-yl)-9-ethyl-6,6-dimethyl-11-oxo-6,11-dihydro-5H-benzo[b]carbazole-3-carbonitrile] |
| 1000 to 1900 nM | CCc1cc2c(cc1N1CCC(N3CCN(Cc4cccc(NC5CCC(=O)NC5=O)c4)CC3)CC1)C(C)(C)c1[nH]c3cc(C#N)ccc3c1C2=O (stereo not shown) [GT-07313, 8-(4-(4-(3-((2,6-dioxopiperidin-3-yl)amino)benzyl)piperazin-1-yl)piperidin-1-yl)-9-ethyl-6,6-dimethyl-11-oxo-6,11-dihydro-5H-benzo[b]carbazole-3-carbonitrile] |
| 500 to 1000 nM | CCc1cc2c(cc1N1CCN(Cc3ccc(C4CCC(=O)NC4=O)cc3)CC1)C(C)(C)c1[nH]c3cc(C#N)ccc3c1C2=O (stereo not shown) [GT-07323, 8-(4-(4-(2,6-dioxopiperidin-3-yl)benzyl)piperazin-1-yl)-9-ethyl-6,6-dimethyl-11-oxo-6,11-dihydro-5H-benzo[b]carbazole-3-carbonitrile] |
| 1000 to 1900 nM | CCc1cc2c(cc1N1CCN(Cc3ccc(N4CCC(=O)NC4=O)cc3)CC1)C(C)(C)c1[nH]c3cc(C#N)ccc3c1C2=O [GT-07324, 8-(4-(4-(2,4-dioxotetrahydropyrimidin-1(2H)-yl)benzyl)piperazin-1-yl)-9-ethyl-6,6-dimethyl-11-oxo-6,11-dihydro-5H-benzo[b]carbazole-3-carbonitrile] |
| 500 to 1000 nM | CCc1cc2c(cc1N1CCN(Cc3cccc(N4CCC(=O)NC4=O)c3)CC1)C(C)(C)c1[nH]c3cc(C#N)ccc3c1C2=O [GT-07325, 8-(4-(3-(2,4-dioxotetrahydropyrimidin-1(2H)-yl)benzyl)piperazin-1-yl)-9-ethyl-6,6-dimethyl-11-oxo-6,11-dihydro-5H-benzo[b]carbazole-3-carbonitrile] |
| 1000 to 1900 nM | CCc1cc2c(cc1N1CCN(Cc3ccc(N4CCC(=O)NC4=O)cn3)CC1)C(C)(C)c1[nH]c3cc(C#N)ccc3c1C2=O [GT-07326, 8-(4-((5-(2,4-dioxotetrahydropyrimidin-1(2H)-yl)pyridin-2-yl)methyl)piperazin-1-yl)-9-ethyl-6,6-dimethyl-11-oxo-6,11-dihydro-5H-benzo[b]carbazole-3-carbonitrile] |
| < 500 nM | CCc1cc2c(cc1N1CCN(Cc3cccc(NC4CCC(=O)NC4=O)c3)CC1)C(C)(C)c1[nH]c3cc(C#N)ccc3c1C2=O (stereo not shown) [GT-07328, 8-(4-(3-((2,6-dioxopiperidin-3-yl)amino)benzyl)piperazin-1-yl)-9-ethyl-6,6-dimethyl-11-oxo-6,11-dihydro-5H-benzo[b]carbazole-3-carbonitrile] |
| 1000 to 1900 nM | COc1cc(N2CCN(Cc3ccc(N4CCC(=O)NC4=O)c(F)c3)CC2)ccc1Nc1ncc(Cl)c(Nc2ccccc2P(C)(C)=O)n1 [GT-07346, 1-(4-((4-(4-((5-chloro-4-((2-(dimethylphosphoryl)phenyl)amino)pyrimidin-2-yl)amino)-3-methoxyphenyl)piperazin-1-yl)methyl)-2-fluorophenyl)dihydropyrimidine-2,4(1H,3H)-dione] |
| 1000 to 1900 nM | COc1cc(N2CCN(Cc3cccc(N4CCC(=O)NC4=O)c3)CC2)ccc1Nc1ncc(Cl)c(Nc2ccccc2P(C)(C)=O)n1 [GT-07348, 1-(3-((4-(4-((5-chloro-4-((2-(dimethylphosphoryl)phenyl)amino)pyrimidin-2-yl)amino)-3-methoxyphenyl)piperazin-1-yl)methyl)phenyl)dihydropyrimidine-2,4(1H,3H)-dione] |
| 500 to 1000 nM | Cc1cc(Nc2ncc(Cl)c(Nc3ccccc3S(=O)(=O)C(C)C)n2)c(OC(C)C)cc1C1CCN(Cc2ccc(C3CCC(=O)NC3=O)cc2)CC1 (stereo not shown) [GT-07364, 3-(4-((4-(4-((5-chloro-4-((2-(isopropylsulfonyl)phenyl)amino)pyrimidin-2-yl)amino)-5-isopropoxy-2-methylphenyl)piperidin-1-yl)methyl)phenyl)piperidine-2,6-dione] |
| < 500 nM | O=C1CCN(c2cc(CN3CCN(c4ccc(-c5cc(F)c6c(c5)C(=O)N(C(C(=O)Nc5nccs5)c5ncn7c5CCC7)C6)cc4)CC3)ccn2)C(=O)N1 (stereo not shown) [GT-07379, 2-(6,7-dihydro-5H-pyrrolo[1,2-c]imidazol-1-yl)-2-(6-(4-(4-((2-(2,4-dioxotetrahydropyrimidin-1(2H)-yl)pyridin-4-yl)methyl)piperazin-1-yl)phenyl)-4-fluoro-1-oxoisoindolin-2-yl)-N-(thiazol-2-yl)acetamide] |
| < 500 nM | O=C1CCN(c2cncc(CN3CCN(c4ccc(-c5cc(F)c6c(c5)C(=O)N(C(C(=O)Nc5nccs5)c5ncn7c5CCC7)C6)cc4)CC3)c2)C(=O)N1 (stereo not shown) [GT-07380, 2-(6,7-dihydro-5H-pyrrolo[1,2-c]imidazol-1-yl)-2-(6-(4-(4-((5-(2,4-dioxotetrahydropyrimidin-1(2H)-yl)pyridin-3-yl)methyl)piperazin-1-yl)phenyl)-4-fluoro-1-oxoisoindolin-2-yl)-N-(thiazol-2-yl)acetamide] |
| < 500 nM | O=C1CCC(c2ccc(CN3CCN(c4ccc(-c5cc(F)c6c(c5)C(=O)N(C(C(=O)Nc5nccs5)c5ncn7c5CCC7)C6)cc4)CC3)nc2)C(=O)N1 (stereo not shown) [GT-07381, 2-(6,7-dihydro-5H-pyrrolo[1,2-c]imidazol-1-yl)-2-(6-(4-(4-((5-(2,6-dioxopiperidin-3-yl)pyridin-2-yl)methyl)piperazin-1-yl)phenyl)-4-fluoro-1-oxoisoindolin-2-yl)-N-(thiazol-2-yl)acetamide] |
| 500 to 1000 nM | CN(Cc1cc(N2CCC(=O)NC2=O)ncc1F)C1CCN(c2ccc(-c3cc(F)c4c(c3)C(=O)N(C(C(=O)Nc3nccs3)c3ncn5c3CCC5)C4)cc2)CC1 (stereo not shown) [GT-07382, 2-(6,7-dihydro-5H-pyrrolo[1,2-c]imidazol-1-yl)-2-(6-(4-(4-(((2-(2,4-dioxotetrahydropyrimidin-1(2H)-yl)-5-fluoropyridin-4-yl)methyl)(methyl)amino)piperidin-1-yl)phenyl)-4-fluoro-1-oxoisoindolin-2-yl)-N-(thiazol-2-yl)acetamide] |
| 500 to 1000 nM | CN(Cc1ccnc(N2CCC(=O)NC2=O)c1)C1CCN(c2ccc(-c3cc(F)c4c(c3)C(=O)N(C(C(=O)Nc3nccs3)c3ncn5c3CCC5)C4)cc2)CC1 (stereo not shown) [GT-07383, 2-(6,7-dihydro-5H-pyrrolo[1,2-c]imidazol-1-yl)-2-(6-(4-(4-(((2-(2,4-dioxotetrahydropyrimidin-1(2H)-yl)pyridin-4-yl)methyl)(methyl)amino)piperidin-1-yl)phenyl)-4-fluoro-1-oxoisoindolin-2-yl)-N-(thiazol-2-yl)acetamide] |

Source: US20260274829A1, “NEW E3 UBIQUITIN LIGASE LIGAND, PROTEIN DEGRADATION AGENT AND USE THEREOF” (GLUETACS THERAPEUTICS (SHANGHAI) CO., LTD., priority 2023, published 2026)
